Source: patent publication US11013224B2, “Substance and composition for veterinary purpose” (priority 2016, dated 2021)
Where two headings read alike, the source gives them in different places.

What was measured:
hoof [1] = assay: Application of cromoglycate using limb perfusion in healthy horses; type: in vivo
Protocol: Standard blood analysis was carried out before and after treatment. Hoof quality and growth were determined over a period of time as described above.

hoof [2] = assay: Application of cromoglycate using inhalation in horses; type: in vivo
Protocol: Gas mix system and the Air-ONE nebuliser were prepared and operated as per manufacturer's instructions. […] Treatment was continued until all 70 ml had been inhaled (between 20 to 30 minutes). Horses were treated at 2 day intervals for at least 1 and up to 3 weeks. […] Micro-circulation was measured during inhalation using PeriFlux System 5000. Hoof quality and growth were determined as described above.

hoof [3] = tested on: hoof
Protocol: Routine equine intravenous fluid therapy was carried out twice per week for 4 weeks. Standard blood analysis was carried out on Abbott i-STAT systems, Abbott Architect ci8200 and Architect Celldyn CD3700 before and after treatment. Micro-circulation was measured during treatment using PeriFlux System 5000. Hoof quality and growth were determined as described above.

[4] = limb perfusion, 35 ml of 71 g/L per front limb

SMILES: O=C(O)c1cc(=O)c2c(OCC(O)COc3cccc4oc(C(=O)O)cc(=O)c34)cccc2o1 [sodium cromoglycate]
- Heart rate, temperature and gut sounds (hoof [1]; 24 h after injection): normal
- Hoof growth and hoof quality (hoof [1]; limb perfusion): increases hoof growth and improves hoof quality
- Ionized calcium, pre vs post treatment blood data (hoof [1]; [4]): a change
- Potassium, pre vs post treatment blood data (hoof [1]; [4]): a reduction
- Tolerability of repeated inhalation (hoof [2]; 70 ml of 70 g/l per horse by nebuliser, 2 day intervals, 1 to 3 weeks): well tolerated
- Calcium upon treatment (hoof [2]; inhalation): effected
- Digestion, coat and hoof quality (hoof [2]; inhalation): improves
- Hoof growth and hoof quality (hoof [2]; inhalation): increases hoof growth and improves hoof quality
- Micro-circulation (hoof [2]; measured during inhalation, PeriFlux System 5000): activates
- Hoof growth and hoof quality (hoof [3]; intravenous fluid): increases hoof growth and improves hoof quality
- Digestion, coat and hoof quality (hoof [3]; intravenous fluid infusion): improves
- Calcium upon treatment (hoof [3]; intravenous fluid therapy): effected
